# Test results reported in paper PMC12208494, “The zinc metalloprotein MigC impacts cell wall biogenesis through interactions with an essential Mur ligase in Acinetobacter baumannii” (PLOS Pathogens, 2025).
# Biological target: T1, MurC (Acinetobacter baumannii, UniProt A3M9Y0)
# T1 construct: full length, N-terminal 6xHis tag removed by TEV protease, E. coli BL21(DE3)
# Assay: HPLC of UMA formation
# Assay type: biochemical
# Conditions: 200 µM UDP-MurNAc, 1 mM L-alanine, 1 mM ATP, 2 mM MgCl2, pH 7.4, 37 °C
# T1 sequence (A3M9Y0 whole entry): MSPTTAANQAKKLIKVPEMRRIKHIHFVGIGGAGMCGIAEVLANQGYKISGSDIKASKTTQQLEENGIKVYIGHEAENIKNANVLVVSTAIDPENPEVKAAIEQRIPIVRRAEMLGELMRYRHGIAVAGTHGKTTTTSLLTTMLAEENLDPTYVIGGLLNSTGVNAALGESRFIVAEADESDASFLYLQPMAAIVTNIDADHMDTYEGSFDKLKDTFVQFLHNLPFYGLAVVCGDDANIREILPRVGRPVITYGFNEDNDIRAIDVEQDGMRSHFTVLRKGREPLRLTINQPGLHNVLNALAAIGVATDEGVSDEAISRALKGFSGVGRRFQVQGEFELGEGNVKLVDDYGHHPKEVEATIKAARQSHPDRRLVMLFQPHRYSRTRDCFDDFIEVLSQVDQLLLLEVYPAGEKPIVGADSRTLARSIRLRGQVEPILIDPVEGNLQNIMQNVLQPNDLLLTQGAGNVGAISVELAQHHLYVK
structure (smiles),measurement,value
CC(=O)N[C@H]1[C@@H](OP(=O)(O)OP(=O)(O)OC[C@H]2O[C@@H](n3ccc(=O)[nH]c3=O)[C@H](O)[C@@H]2O)O[C@H](CO)[C@@H](O)[C@@H]1O[C@H](C)C(=O)O [UDP-MurNAc],HPLC of UMA formation,"MurC and MurD activity were quantified by measuring MurC product, UMA"
